Test results taken from patent publication EP0531370B1, “INHIBITION OF VIRAL INFECTION” (priority 1990, dated 1991).
Where two headings read alike, the source gives them in different places.

Columns and labels:
[1] = test system: integration of foreign DNA into the genome; conditions: calcium phosphate mediated DNA transfection; cited from earlier work
[2] = test system: T-cell adapted HIV-1; assay: microbe, parasite or virus in culture; type: cell-based; conditions: for minimal effective concentration: Human immunodeficiency virus 1, T-cell, 336 h, read-out: Minimum Antiviral Concentration; for Therapeutic Index: T-Cell Line with T-virus; for antiviral activity (P24 antigen level in supernatant): virus T and the T-cell line, Day 14
[3] = test system: retroviral vector pWET-TAC ψ2; assay: Infection of NIH-3T3 cells by retroviral vector pWeT-TAC ψ2, count of G418-resistant colonies; type: cell-based; conditions: for inhibition at 2000 µM / activity at 2000 µM: 2mM; for activity at 2000 µM / activity at 3000 µM / activity at 1000 µM: read-out: % of control colonies counted; for inhibition of G418-resistant colony formation (in words): concentrations of Table 1 (1mM to 3mM); for inhibition at 3000 µM / activity at 3000 µM: 3mM; for inhibition at 1000 µM / activity at 1000 µM: 1mM
[4] = in vitro; conditions: human, t-cell line
[5] = test system: MPSV^28; assay: Dot-blot analysis of high molecular weight DNA of HL-60 cells after infection with MPSV^28; type: cell-based, murine myeloproliferative sarcoma virus; conditions: 1.5mM, 72 hours after infection
Experimental: In this case cells were pretreated with 0.4% DMSO and […] polybrene for 24 hours. At the time of infection this medium was removed and fresh medium containing the same concentration of DMSO and polybrene, plus 5 x 10^5 c.f.u. of the vector were added to 10^7 cells either in the presence (+) or absence (-) of the inhibitor (5 x 10^6 cells for each condition). 24 hours after infection the medium was removed and cells were placed in fresh medium containing no DMSO or polybrene. Cells were incubated in this medium for another 48 hours before being harvested (approximately 2 x 10^7 cells with, and 2 x 10^7 without the inhibitor).

[6] = test system: MPSV^28; assay: Southern hybridisation of genomic DNA of NIH/3T3 cells after infection with MPSV^28; type: cell-based, murine myeloproliferative sarcoma virus; conditions: 2mM, most obvious at 24 and 48 hours after infection
[7] = in vitro; conditions: human, pbmc
[8] = test system: monocyte adapted HIV-1; assay: microbe, parasite or virus in culture; type: cell-based; conditions: for minimal effective concentration: Human immunodeficiency virus 1, Monocyte, 336 h, read-out: Minimum Antiviral Concentration; for Therapeutic Index: PBMC's with M-virus, * partial inhibition only; for virus production (P24 antigen level in supernatant): virus M and PBMC's, Day 14, all concentrations tested
[9] = test system: monocyte adapted laboratory strain of HIV; type: cell-based, HIV-1; conditions: monocyte line, Day 7
[10] = test system: AZT-resistant HIV isolate; type: cell-based, HIV-1
[11] = in vitro; conditions: human
[12] = test system: vaccinia virus; conditions: BSC40 cells, 24 hours at 37°C, cited from earlier work
[13] = test system: phytohaemagglutinin (PHA) stimulated peripheral blood mononuclear cells (PBMC); assay: Cell toxicity assay, trypan blue exclusion (Example 6), PBMC; conditions: 150µM; PBMC's; Days 1, 6 and 10
[14] = test system: continuous human T-cell line; assay: Cell toxicity assay, trypan blue exclusion (Example 6), T-cell line; conditions: 150µM, Days 1, 6 and 10
[15] = NIH3T3, NIH-3T3, G418-resistant colonies, read-out: % inhibition achieved
[16] = NIH3T3, NIH-3T3, G418-resistant colonies

SMILES: COc1cccc(C(N)=O)c1 [3-methoxybenzamide]
- integration of foreign DNA into the genome [1]: blocked
- minimal effective concentration [2]: 0.19 µM
- Therapeutic Index [2]: >15 800
- antiviral activity (P24 antigen level in supernatant) [2]: showed particular activity
- inhibition at 2000 µM [3, 15]: 82%
- activity at 2000 µM [3, 16]: 18%
- inhibition of G418-resistant colony formation (in words) [3]: very effective
- MNTC [4]: 3 mM
- appearance of the proviral DNA [5]: inhibited
- appearance of complete proviral DNA in the genomic DNA [6]: inhibited
- MNTC [7]: 3 mM
- minimal effective concentration [8]: 0.19 µM
- Therapeutic Index [8]: >15 800*
- virus production (P24 antigen level in supernatant) [8]: partially inhibited virus production

SMILES: COc1ccc(C(N)=O)cc1 [4-methoxybenzamide, reference compound]
- inhibition at 2000 µM [3, 15]: 15%
- activity at 2000 µM [3, 16]: 85%
- inhibition of G418-resistant colony formation (in words) [3]: did not inhibit

SMILES: O=C1NC(CCCl)Oc2ccccc21 (stereo not drawn) [Chlorthenoxazine, chlorthenoxazine]
- antiviral activity (supernatant p24 antigen) ([9]; concentrations tested 150 to 0.015µM): active and has a clear dose response
- antiviral activity (supernatant p24 antigen) ([10]; 0.15µM, PBMC's, Day 7, no smooth dose response): possibly active
- viability at 336 h [11]: > 50%

SMILES: NC(=O)c1cccnc1 [nicotinamide]
- viral replication ([12]; 20mM): affected
- decrease of viral replication ([12]; 60mM): greater than 99%

SMILES: Nc1cccc(C(=O)O)c1 [3-aminobenzoic acid, reference compound]
- inhibition at 3000 µM [3, 15]: 10%
- activity at 3000 µM [3, 16]: 90%
- inhibition of G418-resistant colony formation (in words) [3]: did not inhibit

SMILES: NC(=O)c1ccc(N)cc1 [4-aminobenzamide, reference compound]
- inhibition at 3000 µM [3, 15]: 12%
- activity at 3000 µM [3, 16]: 88%
- inhibition of G418-resistant colony formation (in words) [3]: did not inhibit

SMILES: NC(=O)c1cccc(NC=O)c1 [3-N-formylaminobenzamide]
- inhibition at 1000 µM [3, 15]: 64%
- activity at 1000 µM [3, 16]: 36%
- inhibition of G418-resistant colony formation (in words) [3]: even greater inhibition

SMILES: NC(=O)c1ccc(NC=O)cc1 [4-formylaminobenzamide, reference compound]
- inhibition at 1000 µM [3, 15]: 8%
- activity at 1000 µM [3, 16]: 92%
- inhibition of G418-resistant colony formation (in words) [3]: did not inhibit

SMILES: NC(=O)c1cccc(N)c1 [3-aminobenzamide]
- integration of foreign DNA into the genome [1]: blocked
- inhibition of the formation of G418 resistant colonies ([3]; 1mM inhibitor): small degree of inhibition
- inhibition at 3000 µM [3, 15]: 45%
- activity at 3000 µM [3, 16]: 55%
- inhibition at 3000 µM ([3]; NIH3T3, read-out: inhibition of the formation of G418 resistant colonies): 50%
- inhibition at 5000 µM ([3]; NIH3T3, 5mM, read-out: inhibition of the formation of G418 resistant colonies): 60%
- inhibition of G418-resistant colony formation (in words) [3]: significant degree of inhibition

SMILES: Cc1cn([C@H]2C[C@H](N=[N+]=[N-])[C@@H](CO)O2)c(=O)[nH]c1=O [AZT, 3'-azido-2',3'-dideoxythymidine, reference compound]
- minimal effective concentration [2]: 0.007 µM
- Therapeutic Index [2]: 142 900
- antiviral activity (P24 antigen level in supernatant) [2]: inhibited virus with a good dose response
- MNTC [4]: 1 mM
- antiviral activity (supernatant p24 antigen) ([9]; 0.15µM): significant antiviral activity
- virus inhibition (supernatant p24 antigen) [10]: inhibited completely
- virus suppression (supernatant p24 antigen) [10]: did not suppress the virus
- toxicity (viable counts) [13]: non-toxic
- toxicity (viable counts) [14]: non-toxic
- MNTC [7]: 1 mM
- minimal effective concentration [8]: 0.007 µM
- Therapeutic Index [8]: 142 900
- virus production (P24 antigen level in supernatant) [8]: inhibited virus with a good dose response
